# Reference: patent US20100076047A1, “Amorphous 1-(9H-carbazol-4-yloxy)-3-[[2-(2-methoxyphenoxy)ethyl]amino]-2-propanol phosphate salt” (priority 2007, published 2010)
# Counter-ions that a name gives are not always drawn.
# Experiments:
# [1] = storage stability of the solid amorphous form (XRD); assay type: physicochemical
# Text: Solid amorphous Carvedilol dihydrogen phosphate is provided herein.
# [2] = moisture uptake on exposure to air; assay type: physicochemical
smiles,measurement,setting,value
COc1ccccc1OCCNCC(O)COc1cccc2[nH]c3ccccc3c12 (stereo not shown) [1-(9H-carbazol-4-yloxy)-3-[[2-(2-methoxyphenoxy)ethyl]amino]-2-propanol phosphate salt],stability on storage,"[1]; stored under controlled humidity conditions, no conversion to a crystalline form",stable
same,stability profile compared to the existing crystalline forms,[1]; versus existing crystalline forms,superior stability profile
same,XRD pattern after moisture uptake,[2]; after picking up moisture up to 7%,remains identical
same,moisture picked up when exposed to air,"[2]; material of low moisture content exposed to air, forming higher hydrates",up to 7%
